{"source": "ChEMBL document CHEMBL3832553", "about": "“DailyMed|setid=be8e0025-5726-4965-9510-e7e657687d23 | AVELOX - moxifloxacin hydrochloride tablet, coated|Lake Erie Medical Supply DBA Quality Care Products LLC”", "assay_type_in_all_cases": "ADME, organism-based", "key": {"[1]": {"assay": "(§1) Pharmacokinetic parameters for Moxifloxacin hydrochloride following single oral or intravenous administration of 400 mg Moxifloxacin to healthy or patient male and/or female", "set-up": "dose 400 mg, route iv, route oral", "details": "human, in vivo, 400 mg, dosed compound id 1, dosed compound name MOXIFLOXACIN, regimen Single dose, tissue Plasma"}, "[2]": {"system": "Homo sapiens", "assay": "as §1", "set-up": "dose 400 mg, route iv, route oral", "details": "in vivo, dosed compound id 1, dosed compound name MOXIFLOXACIN, regimen Single dose, study dosing duration 1 hr, tissue Plasma; for Cmax: po"}, "[3]": {"assay": "(§2) Pharmacokinetic parameters for Moxifloxacin hydrochloride following multiple oral administration of 400 mg Moxifloxacin to male Japanese or Caucasian healthy or patient male and/or female", "set-up": "dose 400 mg, route iv, route oral", "details": "human, in vivo, 400 mg, dosed compound id 1, dosed compound name MOXIFLOXACIN, regimen Multiple dose, tissue Plasma"}, "[4]": {"system": "Homo sapiens", "assay": "as §2", "set-up": "dose 400 mg, route iv, route oral", "details": "in vivo, dosed compound id 1, dosed compound name MOXIFLOXACIN, regimen Multiple dose, tissue Plasma"}, "[5]": {"assay": "Pharmacokinetic parameters for Moxifloxacin hydrochloride following oral administration of Moxifloxacin.", "details": "human, in vivo, dosed compound id 1, dosed compound name MOXIFLOXACIN, tissue Plasma"}}, "note": "Values joined by “and” are separate entries in the source; they are usually repeats but may differ in a detail not shown here. Equal values may be shown once."}
{"molecule": "COc1c(N2C[C@@H]3CCCN[C@@H]3C2)c(F)cc2c(=O)c(C(=O)O)cn(C3CC3)c12.Cl", "note": "[MOXIFLOXACIN HYDROCHLORIDE]", "values": [{"measurement": "AUC", "setting": "[1]", "result": 36.1, "unit": "µg·h/mL"}, {"measurement": "Cmax", "setting": "[1]; po", "result": 3.1, "unit": "µg/mL"}, {"measurement": "AUC", "setting": "[2]; gender young male and female", "result": 39.3, "unit": "µg·h/mL"}, {"measurement": "Cmax", "setting": "[2]; gender female", "result": 4.5, "unit": "µg/mL"}, {"measurement": "Cmax", "setting": "[2]; gender male and female", "result": 4.3, "unit": "µg/mL"}, {"measurement": "Cmax", "setting": "[2]; gender male", "result": 4.4, "unit": "µg/mL"}, {"measurement": "Cmax", "setting": "[2]; gender young male and female", "result": 3.9, "unit": "µg/mL"}, {"measurement": "AUC", "setting": "[3]; gender young male and female, read-out: AUC", "result": 48, "unit": "µg·h/mL"}, {"measurement": "Cmax", "setting": "[3]; gender young male and female, read-out: Cmax", "result": 4.5, "unit": "µg/mL"}, {"measurement": "AUC", "setting": "[3]; read-out: AUC(0-24)", "result": 47, "unit": "µg·h/mL"}, {"measurement": "Cmax", "setting": "[3]; read-out: Cmax ss", "result": 4.1, "unit": "µg/mL"}, {"measurement": "Cmax", "setting": "[4]; gender elderly male amd female, study dosing duration 1 hr", "result": 6.1, "unit": "µg/mL"}, {"measurement": "AUC", "setting": "[4]; gender elderly male", "result": 51.8, "unit": "µg·h/mL"}, {"measurement": "Cmax", "setting": "[4]; gender elderly male", "result": 3.8, "unit": "µg/mL"}, {"measurement": "Cmax", "setting": "[4]; gender female, study dosing duration 1 hr", "result": 4.6, "unit": "µg/mL"}, {"measurement": "Cmax", "setting": "[4]; gender male and female, study dosing duration 1 hr", "result": "4.1 µg/mL and 4.7 µg/mL"}, {"measurement": "AUC", "setting": "[4]; gender young female", "result": 49.3, "unit": "µg·h/mL"}, {"measurement": "Cmax", "setting": "[4]; gender young female", "result": 4.2, "unit": "µg/mL"}, {"measurement": "AUC", "setting": "[4]; gender young male, study dosing duration 1 hr", "result": 38, "unit": "µg·h/mL"}, {"measurement": "AUC", "setting": "[4]; gender young male", "result": 48.2, "unit": "µg·h/mL"}, {"measurement": "Cmax", "setting": "[4]; gender young male", "result": 3.6, "unit": "µg/mL"}, {"measurement": "AUC(0-24)", "setting": "[4]", "result": 47, "unit": "µg·h/mL"}, {"measurement": "bioavailability", "setting": "[5]", "result": 90, "unit": "%"}]}
